Values quoted from earlier work in patent US20140100282A1, “INTRANASAL ADMINISTRATION OF PHARMACEUTICAL AGENTS FOR TREATMENT OF NEUROLOGICAL DISEASES” (priority 2012, published 2014).
Read-outs that look alike come from different tables or passages of the source. One block for each compound: values may come before it.

What was measured:
[1] = mouse, intravenous, autoradiography after 30 minutes
[2] = test system: protein phosphatase 2A (PP2A); details: murine primary neurons from wild-type and human tau transgenic mice
tau = details: transgenic mice
amyloid beta = details: monotherapy at doses that lead to activation of AMPK
[3] = animal and humans
[4] = intranasal

penetration into the brain or spinal cord through the BBB [1]: zero penetration
Compound: NCCc1c[nH]cn1 [histamine]

PP2A activity [2]: induces PP2A activity | absorption from the blood to the brain [3]: negligible
Compound: CN(C)C(=N)NC(=N)N [metformin]
phosphorylation of Ser202 (tau; 100 nM): decreased phosphorylation of Ser202 slightly | phosphorylation of Ser202 (tau; 10 μM): significantly reduced | generation of amyloid beta species (amyloid beta): significantly increases | migration of glioblastoma cells (glioblastoma cells): significantly inhibited | growth of glioblastoma cells (glioblastoma cells; basal and leptin-stimulated): reduced basal and leptin-stimulated growth of glioblastoma cells in a dose-dependent manner

Compound: insulin: intranasal insulin (20 and 40 IU)
cognition on Alzheimer Disease's Assessment Scale-cognitive subscale ([4]; 20 and 40 IU, compared with placebo): less decline in cognition | recall of episodic memories ([4]; 20 or 40 IU for 4 months, relative to placebo): improved recall of episodic memories | brain glucose uptake and utilization ([4]; over the 4-month period, compared with placebo): reduced decline in brain glucose uptake and utilization
